One compound from US10966995B2, “Use of secoisolariciresinol diglucosides (SDGS) and related compounds for protection against radiation and chemical damage” (THE TRUSTEES OF THE UNIVERSITY OF PENNSYLVANIA, priority 2014, dated 2021) can be followed below.

In series [1] the test system is murine primary lung endothelial cells. The series is described as follows: γ-H2AX foci immunostaining, endothelial cells. As to conditions: SDG 50 μM 6 h prior IR; 2 Gy; irradiated control 33.6% at 30 min. Format: cell-based, mouse. Here is the method: (§1) Fibroblasts and endothelial cells were isolated from C57/bl6 mouse. For fibroblast isolation, mouse lungs were harvested, minced, and incubated with dispase (2 mg/ml) for 45 minutes. Pieces were plated out and fibroblasts were cultured as described previously and used between passages 3 and 10. Pulmonary microvascular endothelial cells (PMVEC) were isolated from murine lungs as described previously. Briefly, freshly harvested mouse lungs were treated with collagenase followed by isolation of cells by adherence to magnetic beads coated with mAb to platelet endothelial cell adhesion molecule (PECAM). Epithelial cells (C10) cells were originally derived from a normal BALB/c mouse lung explant and are non-tumorigenic, contact-inhibited, and have alveolar type 2 cell features at early passage.
For immunostaining of γ-H2AX, cells were plated on glass coverslips (5,000 cells/coverslip), pre-treated (6 h) with 50 μM SDG and irradiated (2 Gy). At desired time interval, cells were fixed (4% para-formaldehyde), washed and blocked with PBST (PBS+0.1% TritonX-100 containing 5% goat serum, 1% BSA). Cells were incubated with γ-H2AX primary antibody (1:200) overnight at 4° C. followed by washing with PBST (3×5 min) and incubation with secondary antibody (Alexa Fluor® 488, Invitrogen, Calif., USA) for 1 hr at RT. Nuclei were counterstained with DAPI and visualized under fluorescence microscope.

Series [2] has as its system murine primary lung epithelial cells. The series is described as follows: Morphological detection of apoptotic cells, epithelial cells. Format: cell-based, mouse. The settings on record: SDG 50 μM pre-treatment; irradiated; 24 h; IR alone 13.9%. As to the method:
as §1, with “Epithelial cells (C10) cells were originally derived from a normal BALB/c mouse lung explant and are non-tumorigenic, contact-inhibited, and have alveolar type 2 cell features at early passage.” left out
Apoptotic cells are morphologically characterized by condensation of nucleus and cytoplasm, membrane blebbing, cell shrinkage, and breakdown of nuclear DNA, first in large segments and subsequently in nucleosomal fragments and finally formation of well-enclosed apoptotic bodies. Percentage of cells undergoing apoptosis was determined microscopically from the slides used for micronuclei detection (cytogenetic damage). At least, 500 cells were counted for each experiment (experiment done twice) and percent apoptotic cells were determined as follows: % Cell Death=Na/Nt×100, where Na is the number of cells with apoptotic bodies and Nt is the total number of cells analyzed. Gene Expression Analysis by Quantitative Real Time PCR (qPCR)

The test system of series [3] is Murine primary lung cells (epithelial cells). The series is described as follows: qPCR of Bax and Bcl-2 gene expression after irradiation. Format: cell-based, mouse. As to conditions: for Bcl-2 mRNA levels, increase: SDG pre-treated cells. Here is the method:
qPCR was performed using TaqMan® Probe-Based Gene Expression Assays supplied by Applied Biosystems, Life Technologies (Carlsbad, Calif.). To evaluate the effect of SDG treatment on the mRNA expression of apoptotic genes, individual TaqMan® gene expression assays were performed for Bax (Mm00432051_m1) and Bcl-2 (Mm00477631_m1).
Briefly, cells were pre-treated with SDG (50 μM, 6 hrs) and irradiated (2 Gy). Total RNA was isolated from using RNeasy Plus Mini Kit (Qiagen, Valencia, Calif.) and quantified using a NanoDrop 2000 (ThermoFisher Scientific, Waltham, Mass.). Reverse transcription of RNA to cDNA was then performed on a Veriti® Thermal Cycler using the High Capacity RNA to cDNA kit supplied by Applied Biosystems, Life Technologies (Carlsbad, Calif.). qPCR was performed using 25 ng of cDNA per reaction well on a StepOnePlus™ Real-Time PCR System (Applied Biosystems, Life Technologies, Carlsbad, Calif.). Gene expression data was normalized to 18S ribosomal RNA and calibrated to untreated control samples according to the ΔΔCT method.
Background: Real-time PCR tracks product formation cycle by cycle.

The test system of series [4] is mouse lung epithelial cells. The series is described as follows: Apoptosis detection by western blotting (Bax, Bcl-2, cleaved caspase-3, cleaved PARP). Format: cell-based. The settings on record: SDG pre-treated vs irradiated cells. Here is the method:
Apoptosis was determined in mouse lung epithelial cells by levels of Bax (an apoptosis promoter), Bcl-2 (an apoptosis inhibitor), cleaved caspase-3, and cleaved poly (adenosine diphosphate-ribose) polymerase (PARP) seen using immunoblotting. Briefly, cells were lysed in PBS containing protease inhibitors. Immunoblot analysis of cell lysates was then performed using 10 well SDS 12% NuPAGE gel (Invitrogen, Carlsbad Calif.). Electrophoresis was performed at 200V for 1 hour. Transfer to PolyScreen PV transfer membrane (PerkinElmer Life Sciences, Boston, Mass.) was performed for 1 hour at 25 volts. Membrane was blocked overnight in 5% non-fat dry milk in phosphate buffered saline. The non-fat dry milk was then discarded and the membrane was incubated with primary antibody. Protein levels of Bax, Bcl-2, cleaved caspase-3, and cleaved PARP were detected using manufacturer recommended dilutions (Cell Signaling Technology, Danvers, Mass.) using rabbit anti-mouse monoclonal antibody against BAX and Bcl-2, and rabbit anti-mouse cleaved caspase-3 (Asp175), monoclonal antibody and a rabbit polyclonal anti-cleaved PARP (214/215) cleavage site specific antibody. The membrane was washed five times and then incubated in secondary antibody conjugated to horseradish peroxidase for 45 minutes at room temperature. Membranes were developed using Western Lighting Chemiluminescence Reagent Plus (PerkinElmer Life Sciences, Boston, Mass.) and quantified by densitometry scanning of specific bands (20 kDa for Bax, 26 kDa for Bcl-2, 17/19 kDa for cleaved caspase-3, and 89 kDa for cleaved PARP) that were adjusted for loading using β-actin expression level detected by specific secondary antibody (Sigma, St. Louis, Mo.).
Background: A western blot detects proteins with antibodies after separation by electrophoresis.

A short description of series [5]: Scavenging of γ-radiation-induced hypochlorite (APF/HPF fluorescence in PBS). As to the method: The fluorescence of ROS probes APF and HPF in PBS was measured at excitation/emission at 490 nm/515 nm in presence of hypochlorite or after γ-radiation exposure. Data is expressed as relative fluorescence units (RFU).
A short description of series [6]: Tolerability of SDG given twice daily for 7 days. It is filed as in vivo. As to conditions: 100 mg/Kg given twice daily for 7 days.
Another series relates to human mesothelial cells. The series is described as follows: Asbestos-induced ROS (DCF fluorescence) in human mesothelial cells. It is filed as cell-based. As to conditions: asbestos 10 μg crocidolite/cm^2 or H2O2 100 μM; SDG 50 μM. As to the method: (§2) SDG blunts asbestos-induced ROS secretion by human mesothelial cells in vitro (FIG. 50). Experimental plan for detecting asbestos-induced ROS in cells: (human mesothelial) HM cells or mouse macrophages plated in 20% DMEM for 24 hours; Added 20 μM DCF in HBSS for 1 hour; Supernatant replaced with 1% DMEM containing H2O2 (100 μM), asbestos (10 μg crocidolite/cm^2) and/or SDG (50 μM); and Fluorescence level monitored up to 36 hours post-initiation of asbestos exposure.

Another series has as its system mouse RAW macrophages. The series is described as follows: Asbestos-induced ROS in RAW macrophages. Format: cell-based. As to the method:
as §2
Asbestos-Induced Oxidative Stress (ROS release) in Culture RAW Macrophages was evaluated. Cells were treated with the ROS-sensitive dye H2DCFDA for 30 min and then they were exposed to vehicle to 40 μg/cm2 asbestos fibers, or 4 uM hypochlorite solution and fluorescence intensity was measured spectrophotometrically for 90, 150 minutes and 27 hours. Asbestos-induced ROS was generated shortly post asbestos exposure and continued for the duration of the observation period (FIG. 51).

For `COc1cc(C[C@@H](CO[C@@H]2O[C@H](CO)[C@@H](O)[C@H](O)[C@H]2O)[C@H](CO[C@@H]2O[C@H](CO)[C@@H](O)[C@H](O)[C@H]2O)Cc2ccc(O)c(OC)c2)ccc1O` [SDG, secoisolariciresinol diglucoside], the γ-H2AX positive cells in series [1] was 21.92%±2.88. The Apoptotic cells in series [2] is 9.9%±1.08. Moreover, in series [3] (SDG 50 μM pre-treatment, 2 Gy, 24 and 48 hours post-IR), the “IR-induced increase in pro-apoptotic Bax mRNA levels” value is “significantly (p<0.05) inhibited”. Further, the “Bcl-2 mRNA levels, increase” value in series [3] (24 hours post-IR) is given as 6.6 fold. For the same compound, the “Bcl-2 mRNA levels, increase” value in series [3] (48 hours post-IR) was 3.5 fold. Also, in series [4], the Bax protein levels entry was “trended towards decreased levels” and the Bcl-2 protein levels entry was “trended towards decreased levels”. For the same compound, in series [4] (6, 24, 48 hours post-IR), the “Cleaved PARP levels” value is listed as “trended towards decreased levels” and the “Cleaved caspase-3 levels” value was “trended towards decreased levels”. The “Ratio APF/HPF” value in series [5] is reported as “decreased”. In series [5] (25 and 50 Gy), the “ClO^− generation from radiation exposure” value is “blunted”. Besides, the “γ-radiation-induced APF and HPF fluorescence” value in series [5] (50 Gy) is “dose-dependently decreased”. In series [5] (50 Gy, SDG dose response), the “Initial slope for decrease of APF fluorescence” value is on record as 1,816.30 and the “Initial slope for decrease of HPF fluorescence” value is given as 695.75. Moreover, in series [6], the Intolerance / toxicity entry is “neither intolerance nor toxicity”. In addition, the ROS levels entry with human mesothelial cells is on record as “significantly lowers ROS levels to baseline levels”. The “Asbestos-induced ROS” value in the series with mouse RAW macrophages is “blocks asbestos-induced ROS”.
